Values quoted from earlier work, collected in US20110052647A1, “Antidepressant Oral Pharmaceutical Compositions” (priority 2005, published 2011).

Assays:
[1] = system: dopaminergic, adrenergic, cholinergic or histaminergic receptors; conditions: in vitro
[2] = system: monoamine oxidase (MAO)
[3] = oral administration of capsules containing enteric-coated pellets
[4] = not given; remark: listed apart in the source

## CNCC[C@H](Oc1cccc2ccccc12)c1cccs1 [Duloxetine, (S)-N-methyl-3-(1-naphthyloxy)-3-(2-thienyl)propan-1-amine]
[1]
  affinity for dopaminergic, adrenergic, cholinergic or histaminergic receptors: no significant affinity
[2]
  inhibition of monoamine oxidase (MAO): does not inhibit
pH of 1.0, within one hour
  dosage hydrolyzed to 1-naphthol: 50%
pH of 2.0, in one hour
  dosage degrades to 1-Naphthol: 10%
pH of 4.0
  time for 10% degradation: up to 63 hours
[3]
  mean plasma elimination half-life: 12.1 h
  median time to maximum concentration (Tmax): 6 h
[4]
  pH values at which unstable in solution: less than 2.5
